Experimental findings from patent US10752626B2, “Iso-citrate dehydrogenase (IDH) inhibitor” (SHANGHAI METON PHARMACEUTICAL CO., LTD, priority 2016, dated 2020) are described below.

SMILES strings stand for the structures.

In data set [1] the target is IDH1 R132C (Homo sapiens (Human), UniProt O75874, R132C). The data set can be described thus: Biochemical assay for inhibition of mutant IDH1 R132C. As to conditions: tested in triplet. From the text: The present disclosure provides a biochemical assay method for detecting the IDH inhibition and selectivity of the compounds by detecting IDH enzyme activity directly.
Wild-type IDH enzyme could convert NADP^+ to NADPH when it catalyzes the α-KG producing reaction. Mutant IDH enzyme could convert NADPH to NADP^+ when it catalyzes the D-2-HG producing reaction. So the activity of wild-type and mutant IDH1/2 could be measured by monitoring NADPH level change: in the reaction catalyzed by wild-type IDH1/2, the newly generated NADPH is utilized instantly by coupled diaphorase-resazurin reaction to generate resorufin which is fluorescent (at Excitation 544 nm, Emission 590 nm) and thus NADPH is monitored indirectly; while in the reaction catalyzed by mutant IDH1/2, NADPH is directly monitored as it is fluorescent (at Excitation 340 nm, Emission 460 nm). By monitoring the change of NADPH level in the reaction, the enzyme activity could be determined rapidly and efficiently, IC50 of a compound could also be assayed.
The test compounds were prepared into 50 mM stock solutions in DMSO and stored at −20° C. Each test compound stock was further diluted to obtain a 100× stock solution at a concentration of 200 μM, 100 μM, 50 μM, 25 μM, 12.5 jμM, 6.25 μM and 3.125 μM, respectively, for the final use on the day of test.
Inhibition of Mutant IDHJ (R132H or R132C):
Solution A was prepared by combining 1 M Tris-HCl pH7.5 (300 μL), 5 M NaCl (450 μL), 1 M MgCl2 (150 μL), 1 M DTT (15 μL), 20 mg/mL BSA (37.5 μL), 20 mM NADPH (20 μL), and 0.5 mM α-KG (40 μL), followed by adding deionized water to a final volume of 15 mL.
Reaction buffer was prepared by combining 1 M Tris-HCl pH 7.5 (200 μL), 5 M NaCl (300 μL), 1 M MgCl2 (100 μL), 1 M DTT (10 μL) and 20 mg/mL BSA (25 μL), followed by adding deionized water to a final volume of 10 mL.
Solution B was prepared by combining the reaction buffer (5 mL) and […] IDH1-R132H (5.21 μL) or 107 μM IDH1-R132C (4.67 μL).
148 μL Solution A was added into each sample well of a 96-well plate P1, and then 2 μL of the test compound solution at each concentration and 2 μL of DMSO (negative control/blank) were added into individual sample well respectively. 50 μL of Solution B was added into each of the sample wells having test compounds and one sample well having DMSO only, and 50 μL of reaction buffer was added into another sample well having DMSO only, respectively. P1 was put into BioTek Synergy H4 Microplate reader (BioTek Instruments Inc., Winooski, U.S.), and the program was set as follows: 37° C., shake plate 5 seconds, run kinetic mode, total detection time 20 min, detection intervals 40 seconds, detection mode fluorescence (at Excitation 340 nm, Emission 460 nm). The data were exported, the relative enzyme activity and the half-maximal inhibitory concentration (IC50) for the test compound were calculated. Relative enzyme activity was calculated as the absolute value of the slope of the Emission 460 reads of each well plotted against time (which represents the conversion rate of ca-KG to 2-HG through IDH1 modulated utilization of NADPH). The Dose-response curve was drawn and the IC50 was calculated via fitting. The IDH inhibition and selectivity of each test compound can be evaluated according to the effect of the compounds on the IDH enzyme activity.
The IDH inhibition activity of the compounds were assessed according to Test 5 of the Biological evaluation section. The test for mutant IDH1 R132H/R132C inhibition of each compound was carried out in triplet. For IDH1 R132H, the enzyme activity of exemplary Compounds 16, 21, 22, 23, 24 and 31 is plotted as a function of logarithm of the concentration of the compound in FIGS. 8A-8C, 9A-9C, 10A-10C, 11A-11C, 12A-12C and 13A-13C, respectively. […]

Data set [2] is described as follows: Metabolic stability in dog liver microsome. As to conditions: for K: Mean; for microsomal CLint at 1 μM / half-life at 1 μM: microsomes, pH 7.4. Here is the method: The liver microsomes of mouse, rat, dog, monkey and human were purchased from Corning Inc., and were stored at −60° C. prior to use. The acetonitrile and NADPH were purchased from Honeywell International Inc. (New Jersey, U.S.) and Roche Inc. (Basel, Swiss).
Reactions were initiated by adding NADPH to a final concentration of 1 mM. The final volume of each reaction mixture was 0.2 ml, and all reactions were performed in duplicate. At each set time point (0, 5, 15, 30 and 60 min), a small aliquot (e.g., 20 μl) was transferred from the reaction system into ice-cold internal standard (IS) containing acetonitrile to quench the reaction and to precipitate the protein. After vortex and centrifuge at 3700 rpm for 10 min, the supernatant was injected into LC-MS/MS for analysis.
In vitro microsomal clearance was estimated based on determination of elimination half-life (T1/2) of compounds disappearance from their initial concentrations. Peak area ratios of each compound (test or control) to IS was calculated. Ln (% Control) versus Incubation Time (min) curve was plotted, and the slope of a linear fitting line was calculated. Drug elimination rate constant k (min^−1), T1/2 (min), and in vitro intrinsic clearance CLint (mL·min^−1·mg^−1 proteins) was calculated according to the following equations: k=−slope T1/2=0.693/k CLint=k/Cprotein where Cprotein (mg·mL^−1) is the microsomal protein concentration in the incubation system. Test 3: Metabolic Stability Assay in Mouse Plasma
In this study, the metabolic stability of the compounds was assessed in mouse, rat, dog, monkey and human liver microsome according to the method disclosed in Test 2 of the Biological evaluation section.

Chain of IDH1 R132C (O75874 whole entry R132C): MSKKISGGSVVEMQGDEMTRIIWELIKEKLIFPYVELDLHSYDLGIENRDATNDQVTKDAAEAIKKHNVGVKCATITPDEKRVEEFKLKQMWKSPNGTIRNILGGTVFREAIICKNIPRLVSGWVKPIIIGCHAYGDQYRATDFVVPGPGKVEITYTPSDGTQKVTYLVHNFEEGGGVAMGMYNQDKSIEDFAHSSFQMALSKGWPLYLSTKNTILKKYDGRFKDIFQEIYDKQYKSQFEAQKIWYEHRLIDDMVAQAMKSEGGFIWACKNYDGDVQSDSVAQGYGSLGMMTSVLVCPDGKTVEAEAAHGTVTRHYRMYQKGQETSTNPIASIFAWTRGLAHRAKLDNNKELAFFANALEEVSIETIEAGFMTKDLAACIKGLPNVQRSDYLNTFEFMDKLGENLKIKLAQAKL

One may read the IC50 as the concentration that gives 50% inhibition. In the case of `CCN1Cc2c(ccnc2N[C@@H](C)c2ccc(Br)cc2)C1=O` [Compound 1, (S)-4-(1-(4-bromophenyl)ethylamino)-2-ethyl-2,3-dihydro-1H-pyrrolo[3,4-c]pyridin-1-one], the IC50 in data set [1] is 10 to 15 µM. For the compound `CCN1Cc2c(ccnc2N[C@@H](C)c2ccc(F)cc2)C1=O` [Compound 2, (S)-2-ethyl-4-(1-(4-fluorophenyl)ethylamino)-2,3-dihydro-1H-pyrrolo[3,4-c]pyridin-1-one], in data set [1], the IC50 was in the range of 10 to 15 µM. In the case of `CCN1Cc2c(ccnc2N[C@@H](C)c2ccc(C)cc2)C1=O` [Compound 3, (S)-2-ethyl-4-(1-p-tolylethylamino)-2,3-dihydro-1H-pyrrolo[3,4-c]pyridin-1-one], the IC50 in data set [1] is 10 to 15 µM.

Regarding `C[C@H](Nc1nccc2c1CN(C1CC1)C2=O)c1ccccc1` [Compound 4, (S)-2-cyclopropyl-4-(1-phenylethylamino)-2,3-dihydro-1H-pyrrolo[3,4-c]pyridin-1-one], the IC50 in data set [1] was 10 to 15 µM. With `CCCCN1Cc2c(ccnc2N[C@@H](C)c2ccccc2)C1=O` [Compound 5, (S)-2-butyl-4-(1-phenylethylamino)-2,3-dihydro-1H-pyrrolo[3,4-c]pyridin-1-one], the 50% inhibitory concentration (IC50) in data set [1] is 10 to 15 µM. Still for that read-out and setting: as for `C[C@H](Nc1nccc2c1CN(Cc1ccccc1)C2=O)c1ccccc1` [Compound 6, (S)-2-benzyl-4-(1-phenylethylamino)-2,3-dihydro-1H-pyrrolo[3,4-c]pyridin-1-one], the figure is 10 to 15 µM; as for `COc1ccc(CN2Cc3c(ccnc3N[C@@H](C)c3ccccc3)C2=O)cc1` [Compound 7, (S)-2-(4-methoxybenzyl)-4-(1-phenylethylamino)-2,3-dihydro-1H-pyrrolo[3,4-c]pyridin-1-one], 10 to 15 µM. As for `CC(C)N1Cc2c(ccnc2N[C@@H](C)c2ccccc2)C1=O` [Compound 8, (S)-2-isopropyl-4-(1-phenylethylamino)-2,3-dihydro-1H-pyrrolo[3,4-c]pyridin-1-one], the IC50 in data set [1] fell in the range of 10 to 15 µM. Regarding `COCCN1Cc2c(ccnc2N[C@@H](C)c2ccccc2)C1=O` [Compound 9, (S)-2-(2-methoxyethyl)-4-(1-phenylethylamino)-2,3-dihydro-1H-pyrrolo[3,4-c]pyridin-1-one], in data set [1], the IC50 fell in the range of 10 to 15 µM. As for `CCN1Cc2c(ccnc2N[C@@H](C)c2ccccc2)C1=O` [Compound 10, (S)-2-ethyl-4-(1-phenylethylamino)-2,3-dihydro-1H-pyrrolo[3,4-c]pyridin-1-one], in data set [1], the IC50 lay in the range of 10 to 15 µM. Consider `CCN1Cc2c(ccnc2N[C@@H](C)c2ccc(OC)cc2)C1=O` [Compound 11, (S)-2-ethyl-4-(1-(4-methoxyphenyl)ethylamino)-2,3-dihydro-1H-pyrrolo[3,4-c]pyridin-1-one], for which the IC50 in data set [1] fell in the range of 10 to 15 µM.

On to `CCOC(=O)c1ccc([C@H](C)Nc2nccc3c2CN(CC)C3=O)cc1` [Compound 12, (S)-ethyl-4-(1-(2-ethyl-1-oxo-2,3-dihydro-1H-pyrrolo[3,4-c]pyridin-4-ylamino)ethyl)benzoate], for which the IC50 in data set [1] lay in the range of 10 to 15 µM. On the same count and under the same terms, as for `CCN1Cc2c(ccnc2N[C@@H](C)c2ccc(C(=O)Nc3ccccc3)cc2)C1=O` [Compound 13, (S)-4-(1-(2-ethyl-1-oxo-2,3-dihydro-1H-pyrrolo[3,4-c]pyridin-4-ylamino)ethyl)-N-phenylbenzamide], the figure is 10 to 15 µM. Consider `CCN1Cc2c(ccnc2N[C@@H](C)c2ccc(-c3cn(C)nn3)cc2)C1=O` [Compound 14, (S)-2-ethyl-4-(1-(4-(1-methyl-1H-1,2,3-triazol-4-yl)phenyl)ethylamino)-2,3-dihydro-1H-pyrrolo[3,4-c]pyridin-1-one], for which the IC50 in data set [1] lay within 10 to 15 µM. As to `CCN1Cc2c(ccnc2N[C@@H](C)c2ccc(Oc3cccc(C)c3)cc2)C1=O` [Compound 15, (S)-2-ethyl-4-((1-(4-(m-tolyloxy)phenyl)ethyl)amino)-2,3-dihydro-1H-pyrrolo[3,4-c]pyridin-1-one], in data set [1], the IC50 is at most 1.5 µM.

Consider `CCN1Cc2c(ccnc2N[C@@H](C)c2ccc(Oc3ccccc3C)cc2)C1=O` [Compound 17, (S)-2-ethyl-4-(1-(4-(o-tolyloxy)phenyl)ethylamino)-2,3-dihydro-1H-pyrrolo [3,4-c]pyridin-1-one], for which, in data set [1], the IC50 was at most 1.5 µM. Turning to `CCN1Cc2c(ccnc2N[C@@H](C)c2ccc(Oc3ccccc3)cc2)C1=O` [Compound 18, (S)-2-ethyl-4-(1-(4-phenoxyphenyl)ethylamino)-2,3-dihydro-1H-pyrrolo[3,4-c]pyridin-1-one], in data set [1], the IC50 was at most 1.5 µM. Still for that read-out and setting: as for `CCN1Cc2c(ccnc2N[C@@H](C)c2ccc(Oc3ccc(OC)cc3)cc2)C1=O` [Compound 19, (S)-2-ethyl-4-(1-(4-(4-methoxyphenoxy)phenyl)ethylamino)-2,3-dihydro-1H-pyrrolo[3,4-c]pyridin-1-one], the figure is at most 1.5 µM; as for `CCN1Cc2c(ccnc2N[C@@H](C)c2ccc(Oc3ccc(F)cc3)cc2)C1=O` [Compound 20, (S)-2-ethyl-4-(1-(4-(4-fluorophenoxy)phenyl)ethylamino)-2,3-dihydro-1H-pyrrolo[3,4-c]pyridin-1-one], 1.5 to 10 µM. The microsomal CLint is the rate of metabolic loss divided by the concentration. Broadly, the half-life is the time in which the quantity being followed falls by half. For `Cc1ncc2n1-c1ccc(Cl)cc1C(c1ccccc1F)=NC2` [Positive control, Midazolam, reference compound], the K is 0.140 min⁻¹ in data set [2] (dog liver microsome); 0.0612 min⁻¹ in data set [2] (human liver microsome); 0.211 min⁻¹ in data set [2] (monkey liver microsome); 0.0964 min⁻¹ in data set [2] (mouse liver microsome); 0.174 min⁻¹ in data set [2] (rat liver microsome). Further, the microsomal CLint at 1 μM came to 702 µL/min/mg in data set [2] (dog); 306 µL/min/mg in data set [2] (human); 1050 µL/min/mg in data set [2] (monkey); 482 µL/min/mg in data set [2] (mouse); 871 µL/min/mg in data set [2] (rat). Further, the half-life at 1 μM worked out at 11.3 min in data set [2] (human), 3.29 min in data set [2] (monkey), 7.19 min in data set [2] (mouse) and 3.98 min in data set [2] (rat).
